Reference: patent publication US10676468B2, “N-(3-heteroarylaryl)-4-arylarylcarboxamides and analogs as hedgehog pathway inhibitors and use thereof” (IMPACT Therapeutics, Inc., priority 2012, dated 2020)
Counter-ions that a name gives are not always drawn.

Assays:
Format in all cases: cell-based, mouse
[1] = tested on: Hedgehog Signaling Pathway; test: SAG-induced differentiation of C3H10T1/2 cells into osteoblastic cells, intracellular alkaline phosphatase activity; conditions: 1 μM SAG, 5 days, alkaline phosphatase activity (OD405), read-out: IC50 values of compounds that inhibit Hh pathway
How it was run: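 Mouse C3H10T1/2 cells were induced with SAG and exposed to compound (10 μM to 1 nM) for 5 days at 37 °C. Cells were lysed in 0.2% Triton, and alkaline phosphatase activity was read as OD405 over 30 min at 37 °C in pH 9.8 substrate buffer. IC50 came from a non-linear fit of background-subtracted OD405 against log concentration.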

[2] = tested on: Hedgehog Signaling Pathway; test: SHH-induced differentiation of C3H10T1/2 cells into osteoblastic cells, intracellular alkaline phosphatase activity; conditions: 10 nM SHH-N, 5 days, alkaline phosphatase activity (OD405), read-out: IC50 values of compounds that inhibit Hh pathway
How it was run: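 Hedgehog pathway inhibition was taken as loss of SHH-driven osteoblastic differentiation. Test compound (10 nM–10 μM) plus SHH-N (10 nM) was applied to C3H10T1/2 cells for 5 days, then lysate phosphatase turnover was measured as the 30-min OD405 change at 37 °C. IC50 was fitted from activity versus log dose.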

[3] = tested on: Hedgehog Signaling Pathway; test: Gli-Luc reporter gene cell assay in C3H10T1/2/Gli-Luc cells stimulated with Shh; conditions: 30 nM Shh, luciferase activity (RLU), read-out: IC50 values of compounds that inhibit Hh pathway
How it was run: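 IC50 from nonlinear fit of luciferase RLU versus log compound concentration. Stably transfected C3H10T1/2/Gli-Luc cells received a 7-point compound series alongside Shh (30 nM in the added medium) for 24 h at 37 °C in DMEM/10% FBS, then were lysed for luciferase readout.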

[4] = Mus musculus, C3H 10T1/2, 120 h

| IC50 [1, 4] | IC50 [2, 4] | IC50 ([3]; Mus musculus, C3H 10T1/2, 24 h) | IC50 [1] | IC50 [2] | IC50 ([3]; 24 hours) | Compound |
| --- | --- | --- | --- | --- | --- | --- |
| 184 nM | 28 nM | 10 nM | – | – | – | C[C@@H]1CN(c2ccc(C(=O)Nc3ccc(Cl)c(-c4ncc(C5CCCCC5)[nH]4)c3)c(Cl)c2)C[C@H](C)N1C [Example 184, N-(3-(5-cyclohexyl-1H-imidazol-2-yl)-4-chlorophenyl)-2-chloro-4-((3S,5R)-3,4,5-trimethylpiperazin-1-yl)benzamide] |
| 169 nM | 6.1 nM | 17 nM | – | – | – | Cc1cc(N2C[C@@H](C)N(C)[C@@H](C)C2)ccc1C(=O)Nc1ccc(Cl)c(-c2ncc(C3CCCCC3)[nH]2)c1 [Example 185, N-(3-(5-cyclohexyl-1H-imidazol-2-yl)-4-chlorophenyl)-2-methyl-4-((3S,5R)-3,4,5-trimethylpiperazin-1-yl)benzamide] |
| 30 nM | 5.2 nM | 0.82 nM | – | – | – | CC(C)c1cnc(-c2cc(NC(=O)c3ccc(N4C[C@@H](C)N(C)[C@@H](C)C4)cc3Cl)ccc2Cl)[nH]1 [Example 189, N-(3-(5-isopropyl-1H-imidazol-2-yl)-4-chlorophenyl)-2-chloro-4-((3S,5R)-3,4,5-trimethylpiperazin-1-yl)benzamide Dihydrochloride] |
| 258 nM | 8.1 nM | 8.9 nM | – | – | – | C[C@@H]1CN(c2ccc(C(=O)Nc3ccc(Cl)c(-c4nc5cccnc5[nH]4)c3)c(Cl)c2)C[C@H](C)N1C [Example 195, N-(3-(3H-imidazo[4,5-b]pyridin-2-yl)-4-chlorophenyl)-2-chloro-4-((3S,5R)-3,4,5-trimethylpiperazin-1-yl)benzamide] |
| 157 nM | 54 nM | 5.7 nM | – | – | – | C[C@@H]1CN(c2ccc(C(=O)Nc3ccc(Cl)c(-c4nc5ccncc5[nH]4)c3)c(Cl)c2)C[C@H](C)N1C [Example 196, N-(3-(3H-imidazo[4,5-c]pyridin-2-yl)-4-chlorophenyl)-2-chloro-4-((3S,5R)-3,4,5-trimethylpiperazin-1-yl)benzamide] |
| 306 nM | 115 nM | 9.5 nM | – | – | – | Cc1cc(N2C[C@@H](C)N(C)[C@@H](C)C2)ccc1C(=O)Nc1ccc(Cl)c(-c2nc3ccncc3[nH]2)c1 [Example 197, N-(3-(3H-imidazo[4,5-c]pyridin-2-yl)-4-chlorophenyl)-2-methyl-4-((3S,5R)-3,4,5-trimethylpiperazin-1-yl)benzamide] |
| – | – | – | 26 nM | 0.3 nM | 0.29 nM | Cc1cc(N2C[C@@H](C)N(C)[C@@H](C)C2)ccc1C(=O)Nc1ccc(Cl)c(-c2nc3cscc3[nH]2)c1 [Example 198] |
| 11 nM | 0.19 nM | 0.27 nM | – | – | – | C[C@@H]1CN(c2ccc(C(=O)Nc3ccc(Cl)c(-c4nc5cscc5[nH]4)c3)c(Cl)c2)C[C@H](C)N1C [Example 199, N-(3-(1H-thieno[3,4-d]imidazol-2-yl)-4-chlorophenyl)-2-chloro-4-((3S,5R)-3,4,5-trimethylpiperazin-1-yl)benzamide] |
| 201 nM | 49 nM | 9.6 nM | – | – | – | C[C@@H]1CN(c2ccc(C(=O)Nc3ccc(Cl)c(-c4cnc5ccccc5n4)c3)c(Cl)c2)C[C@H](C)N1C [Example 204, N-(3-(quinoxalin-2-yl)-4-chlorophenyl)-2-chloro-4-((3S,5R)-3,4,5-trimethylpiperazin-1-yl)benzamide] |
| 250 nM | 94 nM | 29 nM | – | – | – | C[C@@H]1CN(c2ccc(C(=O)Nc3ccc(Cl)c(-c4cn5ccsc5n4)c3)c(Cl)c2)C[C@H](C)N1C [Example 205, N-(3-(imidazo[2,1-b]thiazol-6-yl)-4-chlorophenyl)-2-chloro-4-((3S,5R)-3,4,5-trimethylpiperazin-1-yl)benzamide] |
| 244 nM | 46 nM | 27 nM | – | – | – | Cc1cc(N2C[C@@H](C)N(C)[C@@H](C)C2)ccc1C(=O)Nc1ccc(Cl)c(-c2nc3ccccc3o2)c1 [Example 206, N-(3-(benzo[d]oxazol-2-yl)-4-chlorophenyl)-2-methyl-4-((3S,5R)-3,4,5-trimethylpiperazin-1-yl)benzamide] |
| 158 nM | 31 nM | 8.5 nM | – | – | – | C[C@@H]1CN(c2ccc(C(=O)Nc3ccc(Cl)c(-c4nc5ccccc5s4)c3)c(Cl)c2)C[C@H](C)N1C [Example 207, N-(3-(benzo[d]thiazol-2-yl)-4-chlorophenyl)-2-chloro-4-((3S,5R)-3,4,5-trimethylpiperazin-1-yl)benzamide] |
| 52 nM | 1.3 nM | 3.7 nM | – | – | – | C[C@@H]1CN(c2ccc(C(=O)Nc3ccc(Cl)c(-c4ccccn4)c3)c(Cl)c2)C[C@H](C)N1C [Example 208, N-(3-(pyridin-2-yl)-4-chlorophenyl)-2-chloro-4-((3S,5R)-3,4,5-trimethylpiperazin-1-yl)benzamide] |
| 1800 nM | > 10000 nM | > 10000 nM | – | – | – | C[C@@H]1CN(c2ccc(C(=O)Nc3ccc(Cl)c(-c4ncccn4)c3)c(Cl)c2)C[C@H](C)N1C [Example 209, N-(3-(pyrimidin-2-yl)-4-chlorophenyl)-2-chloro-4-((3S,5R)-3,4,5-trimethylpiperazin-1-yl)benzamide] |
| 108 nM | 38 nM | 43 nM | – | – | – | CS(=O)(=O)c1ccc(C(=O)Nc2ccc(Cl)c(-c3ccccn3)c2)c(Cl)c1 [GDC-0449, reference compound] |
| – | – | – | > 10000 nM | > 10000 nM | > 10000 nM | N-(3-(5-(furan-2-yl)-1H-imidazol-2-yl)-4-chlorophenyl)-2-cyano-4-((3S,5R)-3,4,5-trimethylpiperazin-1-yl)benzamide [Example 147] |

| Compound | IC50 [1, 4] | IC50 [2, 4] | IC50 ([3]; Mus musculus, C3H 10T1/2, 24 h) | IC50 [1] | IC50 [2] | IC50 ([3]; 24 hours) |
| --- | --- | --- | --- | --- | --- | --- |
| N-(3-(1H-benzo[d]imidazol-2-yl)-4-chlorophenyl)-2-cyano-4-((3S,5R)-3,4,5-trimethylpiperazin-1-yl)benzamide Dihydrochloride [Example 134] | – | – | – | > 10000 nM | > 10000 nM | > 10000 nM |
